Laboratory results as given in ChEMBL document CHEMBL1135692, “Structure-activity relationships of the melanocortin tetrapeptide Ac-His-D-Phe-Arg-Trp-NH2 at the mouse melanocortin receptors. 4. Modifications at the Trp position” (J Med Chem, 2002).

Biological target: Melanocortin receptor 5 (Mus musculus, UniProt P41149)
Assay: Activity in mouse melanocortin-5 receptor stably expressed in HEK293 cells
Assay type: cell-based
Conditions: not given

Melanocortin receptor 5, sequence (P41149 whole entry): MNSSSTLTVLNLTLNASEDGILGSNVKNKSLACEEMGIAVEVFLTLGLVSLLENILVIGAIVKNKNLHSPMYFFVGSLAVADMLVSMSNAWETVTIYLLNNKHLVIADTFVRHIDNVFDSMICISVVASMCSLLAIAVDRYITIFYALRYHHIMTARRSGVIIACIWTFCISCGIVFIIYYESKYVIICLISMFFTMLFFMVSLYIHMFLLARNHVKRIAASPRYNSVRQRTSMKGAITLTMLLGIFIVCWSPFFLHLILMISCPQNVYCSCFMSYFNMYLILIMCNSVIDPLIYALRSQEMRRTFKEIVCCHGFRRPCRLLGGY

EC50 | Compound
0.0121 µM | CC(=O)N[C@@H](Cc1c[nH]cn1)C(=O)NC(Cc1ccccc1)C(=O)N[C@@H](CCCN=C(N)N)C(=O)NC(Cc1ccc2ccccc2c1)C(N)=O (stereo in doubt) [listing 1 of 2 here]
0.96 µM | CC(=O)N[C@@H](Cc1c[nH]cn1)C(=O)N[C@H](Cc1ccccc1)C(=O)N[C@@H](CCCN=C(N)N)C(=O)N[C@@]1(C(N)=O)CCc2ccccc2C1 (stereo in doubt; 21)
0.89 µM | CC(=O)N[C@@H](Cc1c[nH]cn1)C(=O)N[C@H](Cc1ccccc1)C(=O)N[C@@H](CCCN=C(N)N)C(=O)N[C@@H](Cc1ccccc1)C(N)=O

Same assay, conditions: hek293

EC50 | Compound
0.00396 µM | CC(=O)N[C@@H](Cc1cnc[nH]1)C(=O)NC(Cc1ccccc1)C(=O)N[C@@H](CCCNC(=N)N)C(=O)NC(Cc1c[nH]c2ccccc12)C(N)=O (stereo in doubt)

Biological target: Melanocortin receptor 4 (Mus musculus, UniProt P56450)
Assay: Activity in mouse melanocortin-4 receptor stably expressed in HEK293 cells
Assay type: cell-based
Conditions: not given

Melanocortin receptor 4, sequence (P56450 whole entry): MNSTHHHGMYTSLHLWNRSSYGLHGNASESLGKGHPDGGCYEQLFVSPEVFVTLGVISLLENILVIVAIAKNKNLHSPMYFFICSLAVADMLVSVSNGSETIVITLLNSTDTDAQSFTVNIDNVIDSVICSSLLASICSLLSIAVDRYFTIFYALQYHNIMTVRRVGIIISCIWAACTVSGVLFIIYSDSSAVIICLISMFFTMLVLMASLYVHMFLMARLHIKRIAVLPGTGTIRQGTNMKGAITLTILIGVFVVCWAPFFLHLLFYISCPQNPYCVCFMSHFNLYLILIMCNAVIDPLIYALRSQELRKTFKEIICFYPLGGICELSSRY

EC50 | Compound
0.0462 µM | CC(=O)N[C@@H](Cc1c[nH]cn1)C(=O)NC(Cc1ccccc1)C(=O)N[C@@H](CCCN=C(N)N)C(=O)NC(Cc1ccc2ccccc2c1)C(N)=O (stereo in doubt) [listing 1 of 2 here]
8.8 µM | CC(=O)N[C@@H](Cc1c[nH]cn1)C(=O)N[C@H](Cc1ccccc1)C(=O)N[C@@H](CCCN=C(N)N)C(=O)N[C@@]1(C(N)=O)CCc2ccccc2C1 (stereo in doubt; 21)
7.8 µM | CC(=O)N[C@@H](Cc1c[nH]cn1)C(=O)N[C@H](Cc1ccccc1)C(=O)N[C@@H](CCCN=C(N)N)C(=O)N[C@@H](Cc1ccccc1)C(N)=O

Same assay, conditions: hek293

EC50 | Compound
0.0172 µM | CC(=O)N[C@@H](Cc1cnc[nH]1)C(=O)NC(Cc1ccccc1)C(=O)N[C@@H](CCCNC(=N)N)C(=O)NC(Cc1c[nH]c2ccccc12)C(N)=O (stereo in doubt)

Biological target: Melanocyte-stimulating hormone receptor (Mus musculus, UniProt Q01727)
Assay: Activity in mouse melanocortin-1 receptor stably expressed in HEK293 cells
Assay type: cell-based
Conditions: not given

Melanocyte-stimulating hormone receptor, sequence (Q01727 whole entry): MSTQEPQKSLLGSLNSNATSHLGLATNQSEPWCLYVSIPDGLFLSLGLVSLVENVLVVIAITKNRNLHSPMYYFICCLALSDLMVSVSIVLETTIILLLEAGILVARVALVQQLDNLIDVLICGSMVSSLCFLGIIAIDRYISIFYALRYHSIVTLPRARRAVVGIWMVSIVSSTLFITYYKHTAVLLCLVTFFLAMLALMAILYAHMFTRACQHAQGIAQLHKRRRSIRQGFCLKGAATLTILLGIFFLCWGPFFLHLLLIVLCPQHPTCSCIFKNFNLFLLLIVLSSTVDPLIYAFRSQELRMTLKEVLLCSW

EC50 | Compound
0.127 µM | CC(=O)N[C@@H](Cc1c[nH]cn1)C(=O)NC(Cc1ccccc1)C(=O)N[C@@H](CCCN=C(N)N)C(=O)NC(Cc1ccc2ccccc2c1)C(N)=O (stereo in doubt) [listing 1 of 2 here]
0.68 µM | CC(=O)N[C@@H](Cc1c[nH]cn1)C(=O)N[C@H](Cc1ccccc1)C(=O)N[C@@H](CCCN=C(N)N)C(=O)N[C@@]1(C(N)=O)CCc2ccccc2C1 (stereo in doubt; 21)
0.53 µM | CC(=O)N[C@@H](Cc1c[nH]cn1)C(=O)N[C@H](Cc1ccccc1)C(=O)N[C@@H](CCCN=C(N)N)C(=O)N[C@@H](Cc1ccccc1)C(N)=O

Biological target: Melanocortin receptor 3 (Mus musculus, UniProt P33033)
Assay: Activity in mouse melanocortin-3 receptor (mMC3R) stably expressed in HEK293 cells
Assay type: cell-based
Conditions: not given

Melanocortin receptor 3, sequence (P33033 whole entry): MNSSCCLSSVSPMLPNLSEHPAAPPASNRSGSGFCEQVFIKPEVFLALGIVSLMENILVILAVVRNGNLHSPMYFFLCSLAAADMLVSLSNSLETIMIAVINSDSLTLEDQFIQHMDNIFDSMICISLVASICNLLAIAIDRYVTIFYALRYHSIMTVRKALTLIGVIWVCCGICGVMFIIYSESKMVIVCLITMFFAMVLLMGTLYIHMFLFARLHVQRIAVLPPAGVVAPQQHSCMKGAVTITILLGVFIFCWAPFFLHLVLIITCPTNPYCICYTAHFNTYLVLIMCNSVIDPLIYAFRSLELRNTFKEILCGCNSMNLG

EC50 | Compound
3.7 µM | CC(=O)N[C@@H](Cc1cnc[nH]1)C(=O)NC(Cc1ccccc1)C(=O)N[C@@H](CCCNC(=N)N)C(=O)N[C@H](Cc1csc2ccccc12)C(N)=O (stereo in doubt)
16.2 µM | CC(=O)N[C@@H](Cc1cnc[nH]1)C(=O)NC(Cc1ccccc1)C(=O)N[C@@H](CCCNC(=N)N)C(=O)N[C@@H](Cc1ccc(-c2ccccc2)cc1)C(N)=O (stereo in doubt)
> 100 µM | CC(=O)N[C@@H](Cc1cnc[nH]1)C(=O)NC(Cc1ccccc1)C(=O)N[C@@H](CCCNC(=N)N)C(=O)N[C@H](Cc1ccncc1)C(N)=O (stereo in doubt)
> 100 µM | CC(=O)N[C@@H](Cc1cnc[nH]1)C(=O)NC(Cc1ccccc1)C(=O)N[C@@H](CCCNC(=N)N)C(=O)N[C@H](Cc1cnc[nH]1)C(N)=O (stereo in doubt)
0.74 µM | CC(=O)N[C@@H](Cc1c[nH]cn1)C(=O)NC(Cc1ccccc1)C(=O)N[C@@H](CCCN=C(N)N)C(=O)N[C@H](Cc1ccc2ccccc2c1)C(N)=O (stereo in doubt)
13.4 µM | CC(=O)N[C@@H](Cc1c[nH]cn1)C(=O)NC(Cc1ccccc1)C(=O)N[C@@H](CCCN=C(N)N)C(=O)N[C@H](Cc1ccc(-c2ccccc2)cc1)C(N)=O (stereo in doubt)
21.9 µM | CC(=O)N[C@@H](Cc1cnc[nH]1)C(=O)NC(Cc1ccccc1)C(=O)N[C@@H](CCCNC(=N)N)C(=O)N[C@@H](Cc1cccc2ccccc12)C(N)=O (stereo in doubt)
1.62 µM | CC(=O)N[C@@H](Cc1c[nH]cn1)C(=O)NC(Cc1ccccc1)C(=O)N[C@@H](CCCN=C(N)N)C(=O)NC(Cc1ccc2ccccc2c1)C(N)=O (stereo in doubt) [listing 2 of 2 here]
15 µM | CC(=O)N[C@@H](Cc1c[nH]cn1)C(=O)NC(Cc1ccccc1)C(=O)N[C@@H](CCCN=C(N)N)C(=O)NC(Cc1ccccc1)C(N)=O (stereo in doubt)
30.2 µM | CC(=O)N[C@@H](Cc1cnc[nH]1)C(=O)NC(Cc1ccccc1)C(=O)N[C@@H](CCCNC(=N)N)C(=O)N[C@H](Cc1cccs1)C(N)=O (stereo in doubt)
53.3 µM | CC(=O)N[C@@H](Cc1c[nH]cn1)C(=O)N[C@@H](Cc1ccccc1)C(=O)N[C@@H](CCCN=C(N)N)C(=O)N[C@@H](C(N)=O)C(c1ccccc1)c1ccccc1
16 µM | CC(=O)N[C@@H](Cc1cnc[nH]1)C(=O)NC(Cc1ccccc1)C(=O)N[C@@H](CCCNC(=N)N)C(=O)NC(C(N)=O)C(c1ccccc1)c1ccccc1 (stereo in doubt)
27 µM | CC(=O)N[C@@H](Cc1c[nH]cn1)C(=O)N[C@@H](Cc1ccccc1)C(=O)N[C@@H](CCCN=C(N)N)C(=O)N[C@H](Cc1ccccc1)C(N)=O
33.5 µM | CC(=O)N[C@@H](Cc1c[nH]cn1)C(=O)N[C@H](Cc1ccccc1)C(=O)N[C@@H](CCCN=C(N)N)C(=O)N[C@@]1(C(N)=O)CCc2ccccc2C1 (stereo in doubt; 21)
3.5 µM | CC(=O)N[C@@H](Cc1cnc[nH]1)C(=O)NC(Cc1ccccc1)C(=O)N[C@@H](CCCNC(=N)N)C(=O)N[C@H](Cc1cccc2ccccc12)C(N)=O (stereo in doubt)
